What was measured:
[1] = system: rats (secondary arthritis pain, mycobacterium smegmae); experiment: Arthritis Pain Test in Rats; type: in vivo; conditions: po, rat, p.o., 3 hours after administration, protection in 50% of treated animals
Description: (§1) This analgesic activity has been evaluated in two pharmacological standard methods, the tail flick test in mice and the arthritis pain test in rats.
2. Arthritis Pain Test in Rats.
Male rats having a weight of from 160 to 180 g are anesthetized by small i.p. injection of 20 mg/kg of sodium pentobarbital and 0.1 ml of a suspension of mycobacterium smegmae (SI 043) in liquid paraffin (0.6 mg mycobacterium/0.1 ml of oil) are injected intracutaneously into the left rear paw. Fourteen days later when a marked secondary arthritis has developed in particular in the right rear paw, the effect of the test compound is evaluated. A control-reading is taken 30 minutes prior to administration of the test compound by bending the foot joint of the right rear paw three times and counting the number of squeakings. […] Three hours after oral administration of the test compound the bending of the joint is repeated. Animals which squeak only once or not at all are considered to be protected against pain. Between about 9 and 20 rats are used per dose and the ED50 (95% reliability) is determined according to the method of Litchfield and Wilcoxon (1949). The dose which provides protection in 50% of the treated animals is taken as ED50.

[2] = system: mice (tail flick, heat beam pain reaction); experiment: Tail flick Test in Mice; type: in vivo; conditions: sc, 0.5 h; mouse, s.c.; 30 minutes after administration; >75% increase of reaction time in 50% of animals
Description: as §1
3. Tail flick Test in Mice.
This test is carried out according to the method described by D'Amour and Smith (1941), yet fed male and female mice having a body weight of 16 to 25 g are used instead of rats. Thirty minutes prior to treatment with the test compound, each mouse is placed separately in a cylindrical container in such a manner that it cannot turn itself or move forward. Its tail is positioned in a narrow groove projecting out of the container. A certain point of the tail of each animal (about 35 mm beyond the root of the tail) is subjected to the heat beam of a lamp of known strength and temperature which is positioned directly under the tail. The number of seconds which pass before the mouse moves its tail out of the light beam is determined twice, once 30 minutes and once 15 minutes prior to subcutaneous administration of the test compound (10 mg/kg). Mice which show a reaction time differing more than 25% are eliminated from the test. The reaction time is again determined 15 minutes and 30 minutes after the treatment and an increase of the reaction period of more than 75% of the average values prior to treatment in the same animal is considered as showing an analgesic effect. The ED50 (95% reliability) of each test compound 30 minutes after administration is evaluated according to the method of Litchfield and Wilcoxon (1949). The dose which increases the reaction time as compared to the reaction time prior to treatment for more than 75% in 50% of the animals is considered as ED50.

SMILES	ED50 [1]	ED50 [2]
CN1c2ccccc2C(c2ccccc2)=NCC1CNC(=O)c1ccoc1 (centres unmarked) [Compound 22, 1-methyl-2-[(furane-3-carbonyl)-aminomethyl]-5-phenyl-2,3-dihydro-1,4-benzodiazepine]	14 mg/kg	0.44 mg/kg
COc1ccc2c(c1)N(C)C(CNC(=O)c1sccc1C)CN=C2c1ccccc1 (centres unmarked) [Compound 23, 8-methoxy-1-methyl-2-[(3-methylthiophene-2-carbonyl)-aminomethyl]-5-phenyl-1H-2,3-dihydro-1,4-benzodiazepine]	25 mg/kg	7.2 mg/kg
CN1c2cc3c(cc2C(c2ccccc2)=NCC1CNC(=O)c1cccs1)OCO3 (centres unmarked) [Compound 24, 7,8-methylenedioxy-1-methyl-2-[(thiophene-2-carbonyl)-aminomethyl]-5-phenyl-1H-2,3-dihydro-1,4-benzodiazepine]	10 mg/kg	3.8 mg/kg
CN1c2cc3c(cc2C(c2ccccc2)=NCC1CNC(=O)c1ccco1)OCO3 (centres unmarked) [Compound 25]	< 32 mg/kg	< 5.6 mg/kg
CN1c2cc3c(cc2C(c2ccccc2)=NCC1CNC(=O)c1ccoc1)OCO3 (centres unmarked) [Compound 26, 7,8-methylenedioxy-1-methyl-2-[(furane-3-carbonyl)-aminomethyl]-5-phenyl-1H-2,3-dihydro-1,4-benzodiazepine]	< 5.6 mg/kg	2 mg/kg
COc1ccc2c(c1)N(C)C(CNC(=O)c1ccc(Br)s1)CN=C2c1ccccc1 (centres unmarked) [Compound 27, 8-methoxy-1-methyl-2-[(5-bromothiophene-2-carbonyl)-aminomethyl]-5-phenyl-1H-2,3-dihydro-1,4-benzodiazepine]	< 32 mg/kg	> 5.6 mg/kg
O=C(NCC1CN=C(c2ccccc2)c2ccccc2N1)c1cccs1 (centres unmarked) [Compound 28, 2-[(thiophene-2-carbonyl)-aminomethyl]-5-phenyl-1H-2,3-dihydro-1,4-benzodiazepine]	> 32 mg/kg	4.2 mg/kg
COc1ccc2c(c1)N(C)C(CNC(=O)c1cccnc1)CN=C2c1ccccc1 (centres unmarked) [Compound 29, 8-methoxy-1-methyl-2-nicotinoylaminomethyl-5-phenyl-1H-2,3-dihydro-1,4-benzodiazepine]	30 mg/kg	4 mg/kg
COc1ccc2c(c1)N(C)C(CNC(=O)c1ccccn1)CN=C2c1ccccc1 (centres unmarked) [Compound 30, 8-methoxy-1-methyl-2-picolinoylaminomethyl-5-phenyl-1H-2,3-dihydro-1,4-benzodiazepine]	> 32 mg/kg	7 mg/kg
COc1ccc2c(c1)N(C)C(CNC(=O)c1ccc(C)o1)CN=C2c1ccccc1 (centres unmarked) [Compound 31, 8-methoxy-1-methyl-2-[(5-methylfurane-2-carbonyl)-aminomethyl]-5-phenyl-1H-2,3-dihydro-1,4-benzodiazepine]	30 mg/kg	4.4 mg/kg
Cc1ccc(C(=O)NCC2CN=C(c3ccccc3)c3cc4c(cc3N2C)OCO4)s1 (centres unmarked) [Compound 32, 7,8-methylenedioxy-1-methyl-2-[(5-methylthiophene-2-carbonyl)-aminomethyl]-5-phenyl-1H-2,3-dihydro-1,4-benzodiazepine]	< 18 mg/kg	5.6 mg/kg
COc1ccc2c(c1)N(C)C(CNC(=O)c1cccn1C)CN=C2c1ccccc1 (centres unmarked) [Compound 33, 8-methoxy-1-methl-2-[(1-methylpyrrol-2-carbonyl)-aminomethyl]-5-phenyl-1H-2.3-dihydro-1,4-benzodiazepine]	< 18 mg/kg	1 mg/kg
COc1ccc2c(c1)N(C)C(CNC(=O)c1ccoc1)CN=C2c1ccc(F)cc1 (centres unmarked) [Compound 34, 8-methoxy-1-methyl-2-[(furane-3-carbonyl)-aminomethyl]-5-(4-fluorophenyl)-1H-2,3-dihydro-1,4-benzodiazepine]	5.6 mg/kg	2.1 mg/kg
COc1ccc2c(c1)N(C)C(CNC(=O)c1ccoc1)CN=C2c1ccccc1C(F)(F)F (centres unmarked) [Compound 35, 8-methoxy-1-methyl-2-[(furane-3-carbonyl)-aminomethyl]-5-(2-trifluoromethylphenyl)-1H-2,3-dihydro-1,4-benzodiazepine]	< 18 mg/kg	1 mg/kg
CN1c2ccccc2C(c2ccccc2)=NCC1CNC(=O)c1cccn1C (centres unmarked) [Compound 36, 1-methyl-2-[(1-methylpyrrol-2-carbonyl)-aminomethyl]-5-phenyl-1H-2,3-dihydro-1,4-benzodiazepine]	> 18 mg/kg	2.1 mg/kg
CN1c2cc(Cl)ccc2C(c2ccccc2)=NCC1CNC(=O)c1ccoc1 (centres unmarked) [Compound 37, 8-chloro-1-methyl-2-[(furane-3-carbonyl)-aminomethyl]-5-phenyl-1H-2,3-dihydro-1,4-benzodiazepine]	> 18 mg/kg	1.2 mg/kg
CN1c2cc(F)ccc2C(c2ccccc2)=NCC1CNC(=O)c1ccoc1 (centres unmarked) [Compound 38, 8-fluoro-1-methyl-2-[(furane-3-carbonyl)-amino-methyl]-5-phenyl-1H-2,3-dihydro-1,4-benzodiazepine]	< 18 mg/kg	0.32 mg/kg
COc1ccc2c(c1)N(C)C(CNC(=O)c1ccoc1)CN=C2c1ccccc1F (centres unmarked) [Compound 39, 8-methoxy-1-methyl-2-[(furane-3-carbonyl)-amino-methyl]-5-(2-fluorophenyl)-1H-2,3-dihydro-1,4-benzodiazepine]	< 10 mg/kg	0.7 mg/kg
COc1ccc2c(c1)N(C)C(CNC(=O)c1cccs1)CN=C2c1ccccc1F (centres unmarked) [Compound 40, 8-methoxy-1-methyl-2-[(thiophene-2-carbonyl)-aminomethyl]-5-(2-fluorophenyl)-1H-2,3-dihydro-1,4-benzodiazepine]	< 18 mg/kg	1.2 mg/kg
CN1c2cc3c(cc2C(c2ccccc2)=NCC1CNC(=O)c1ccsc1)OCO3 (centres unmarked) [Compound 41, 7,8-methylenedioxy-1-methyl-2-[(thiophene-3-carbonyl)-aminomethyl]-5-phenyl-1H-2,3-dihydro-1,4-benzodiazepine]	5.6 mg/kg	2.1 mg/kg
COc1ccc2c(c1)N(C)C(CNC(=O)c1ccoc1)CN=C2c1cccc(F)c1 (centres unmarked) [Compound 42, 8-methoxy-1-methyl-2-[(furane-3-carbonyl)-aminomethyl]-5-(3-fluorophenyl)-1H-2,3-dihydro-1,4-benzodiazepine]	< 18 mg/kg	5.6 mg/kg
Cc1ccc(C(=O)NCC2CN=C(c3ccccc3)c3ccc(F)cc3N2C)s1 (centres unmarked) [Compound 43, 8-fluoro-1-methyl-2-[(5-methylthiophene-2-carbonyl)-aminomethyl]-5-phenyl-1H-2,3-dihydro-1,4-benzodiazepine]	< 18 mg/kg	5.6 mg/kg
CN1c2cc3c(cc2C(c2ccccc2)=NCC1CNC(=O)c1ccoc1)OCCO3 (centres unmarked) [Compound 44, 7,8-ethylenedioxy-1-methyl-2-[(furane-3-carbonyl)-aminomethyl]-5-phenyl-1H-2,3-dihydro-1,4-benzodiazepine]	< 18 mg/kg	> 5.6 mg/kg
Cc1ccc2c(c1)C(c1ccccc1F)=NCC(CNC(=O)c1ccoc1)N2C (centres unmarked) [Compound 45, 1,7-dimethyl-2-[(furane-3-carbonyl)-aminomethyl]-5-(2-fluorophenyl)-1H-2,3-dihydro-1,4-benzodiazepine]	< 18 mg/kg	3.8 mg/kg
COc1ccc2c(c1)N(C)C(CNC(=O)c1ccc(Br)s1)CN=C2c1ccccc1F (centres unmarked) [Compound 46, 8-methoxy-1-methyl-2-[(5-bromothiophene-2-carbonyl)-aminomethyl]-5-(2-fluorophenyl)-1H-2,3-dihydro-1,4-benzodiazepine]	< 18 mg/kg	5.6 mg/kg
COc1ccc2c(c1)N(C)C(CNC(=O)c1cccs1)CN=C2c1ccc(F)cc1 (centres unmarked) [Compound 47]	< 18 mg/kg	3.2 mg/kg
COc1ccc2c(c1)N(C)C(CNC(=O)c1ccc(Br)s1)CN=C2c1cccc(F)c1 (centres unmarked) [Compound 48, 8-methoxy-1-methyl-2-[(5-bromothiophene-2-carbonyl)-aminomethyl]-5-(3-fluorophenyl)-1H-2,3-dihydro-1,4-benzodiazepine]	< 18 mg/kg	> 5.6 mg/kg
COc1ccc2c(c1)N(C)C(CNC(=O)c1ccc(Br)s1)CN=C2c1ccc(F)cc1 (centres unmarked) [Compound 49, 8-methoxy-1-methyl-2-[(5-bromothiophene-2-carbonyl)-aminomethyl]-5-(4-fluorophenyl)-1H-2,3-dihydro-1,4-benzodiazepine]	< 18 mg/kg	> 5.6 mg/kg
